From patent publication US20250115620A1, “BRIDGED TRICYCLIC CARBAMOYLPYRIDONE COMPOUNDS AND USES THEREOF” (Gilead Sciences, Inc., priority 2022, published 2025)
Where two headings read alike, the source gives them in different places.

Experiments:
[1] = system: HIV-1 (IIIB); test: microbe, parasite or virus in culture; type: cell-based; conditions: Human immunodeficiency virus 1, IIIB, MT4, 120 h, HIV-1 (IIIB) in MT-4 cells, 5 days incubation, Cell Titer Glo; read-out: MT4 EC50
[2] = in vitro; conditions: human, uninfected MT-4 cells
[3] = system: pLAI reporter virus; test: microbe, parasite or virus in culture; type: cell-based, HIV; conditions: Human immunodeficiency virus 1, MT4, 72 h

| SMILES | EC50 [1] | CC50 at 5 days [2] | EC50 ([3]; read-out: RLUC 50% HS EC50) | EC50 ([3]; read-out: RLUC CCM EC50) |
| --- | --- | --- | --- | --- |
| CO[C@@H]1CS[C@]2(CC[C@H](C)N3C[C@H]2n2cc(C(=O)NCc4c(F)cc(F)cc4F)c(=O)c(O)c2C3=O)O1 (single isomer, unassigned) [170 (peak 2)] | 1.7 nM | 42600 nM | 2.6 nM | 0.2 nM |
| C[C@H]1CC[C@]2(CC(=O)N(Cc3ccc(F)cc3)O2)[C@H]2CN1C(=O)c1c(O)c(=O)c(C(=O)NCc3c(F)cc(F)cc3F)cn12 (single isomer, unassigned) [Example 115] | 1.2 nM | ≥ 50000 nM | 5.1 nM | 0.3 nM |
| C[C@H]1CC[C@]2(CC(OC3COC3)=NO2)[C@H]2CN1C(=O)c1c(O)c(=O)c(C(=O)NCc3ccc(F)cc3F)cn12 [Example 45, (3′S,5S,7′R)—N-(2,4-difluorobenzyl)-12′-hydroxy-3′-methyl-3-(oxetan-3-yloxy)-1′,11′-dioxo-1′,4′,5′,11′-tetrahydro-3′H,4H,7′H-spiro[isoxazole-5,6′-[2,7]methanopyrido[1,2-a][1,4]diazonine]-10′-carboxamide] | 2 nM | ≥ 50000 nM | 1.8 nM | 0.4 nM |
| C[C@H]1CC[C@]2(CC(=O)NO2)[C@H]2CN1C(=O)c1c(O)c(=O)c(C(=O)NCc3ccc(F)cc3F)cn12 [Example 156, (3′S,5S,7′R)—N-(2,4-difluorobenzyl)-12′-hydroxy-3′-methyl-1′,3,11′-trioxo-1′,4′,5′,11′-tetrahydro-3′H,7′H-spiro[isoxazolidine-5,6′-[2,7]methanopyrido[1,2-a][1,4]diazonine]-10′-carboxamide] | 18.1 nM | ≥ 50000 nM | 79.8 nM | 25 nM |
| CC1=NO[C@@]2(CC[C@H](CF)N3C[C@H]2n2cc(C(=O)NCc4ccc(F)cc4F)c(=O)c(O)c2C3=O)C1 [Example 155, (3′R,5S,7′R)—N-(2,4-difluorobenzyl)-3′-(fluoromethyl)-12′-hydroxy-3-methyl-1′,11′-dioxo-1′,4′,5′,11′-tetrahydro-3′H,4H,7′H-spiro[isoxazole-5,6′-[2,7]methanopyrido[1,2-a][1,4]diazonine]-10′-carboxamide] | 1 nM | 28400 nM | 59.8 nM | 0.5 nM |
| C[C@H]1CC[C@]2(CC(C#CC(C)(C)O)=NO2)[C@H]2CN1C(=O)c1c(O)c(=O)c(C(=O)NCc3c(F)cc(F)cc3F)cn12 [Example 81, (3′S,5S,7′R)-12′-hydroxy-3-(3-hydroxy-3-methylbut-1-yn-1-yl)-3′-methyl-1′,11′-dioxo-N-(2,4,6-trifluorobenzyl)-1′,4′,5′,11′-tetrahydro-3′H,4H,7′H-spiro[isoxazole-5,6′-[2,7]methanopyrido[1,2-a][1,4]diazonine]-10′-carboxamide] | 2.1 nM | 19600 nM | 0.6 nM | 0.5 nM |
| COC1=NO[C@@]2(C=C[C@H](C)N3C[C@H]2n2cc(C(=O)NCc4ccc(F)c(Cl)c4F)c(=O)c(O)c2C3=O)C1 [Example 48, (3′S,5R,7′R)—N-(3-chloro-2,4-difluorobenzyl)-12′-hydroxy-3-methoxy-3′-methyl-1′,11′-dioxo-1′,11′-dihydro-3′H,4H,7′H-spiro[isoxazole-5,6′-[2,7]methanopyrido[1,2-a][1,4]diazonine]-10′-carboxamide] | 0.4 nM | 22900 nM | 8.1 nM | 0.2 nM |
| CCC1=NO[C@@]2(CC[C@H](C)N3C[C@H]2n2cc(C(=O)NCc4ccc(F)cc4F)c(=O)c(O)c2C3=O)O1 [Example 94, (3′S,5R,7′R)—N-(2,4-difluorobenzyl)-3-ethyl-12′-hydroxy-3′-methyl-1′,11′-dioxo-1′,4′,5′,11′-tetrahydro-3′H,7′H-spiro[[1,4,2]dioxazole-5,6′-[2,7]methanopyrido[1,2-a][1,4]diazonine]-10′-carboxamide] | 1 nM | 30200 nM | 684 nM | 0.2 nM |
| COC1=NO[C@@]2(CC[C@H](C)N3C[C@H]2n2cc(C(=O)NCc4c(F)cc(F)cc4F)c(=O)c(O)c2C3=O)C1 [Example 36, (3′S,5S,7′R)-12′-hydroxy-3-methoxy-3′-methyl-1′,11′-dioxo-N-(2,4,6-trifluorobenzyl)-1′,4′,5′,11′-tetrahydro-3′H,4H,7′H-spiro[isoxazole-5,6′-[2,7]methanopyrido[1,2-a][1,4]diazonine]-10′-carboxamide] | 0.7 nM | 19500 nM | 27.6 nM | 0.2 nM |
| C[C@H]1CC[C@]2(CC(=O)N(Cc3cccc4[nH]cnc34)O2)[C@H]2CN1C(=O)c1c(O)c(=O)c(C(=O)NCc3c(F)cc(F)cc3F)cn12 [Example 114, (3′S,5S,7′R)-2-((1H-benzo[d]imidazol-4-yl)methyl)-12′-hydroxy-3′-methyl-1′,3,11′-trioxo-N-(2,4,6-trifluorobenzyl)-1′,4′,5′,11′-tetrahydro-3′H,7′H-spiro[isoxazolidine-5,6′-[2,7]methanopyrido[1,2-a][1,4]diazonine]-10′-carboxamide] | 6.1 nM | ≥ 50000 nM | 5.9 nM | 1.9 nM |
| C[C@H]1CC[C@@]2(Cc3ccccc3O2)[C@H]2CN1C(=O)c1c(O)c(=O)c(C(=O)NCc3c(F)cc(F)cc3F)cn12 [Example 144, (2R,3′S,7′R)-12′-hydroxy-3′-methyl-1′,11′-dioxo-N-(2,4,6-trifluorobenzyl)-1′,4′,5′,11′-tetrahydro-3H,3′H,7′H-spiro[benzofuran-2,6′-[2,7]methanopyrido[1,2-a][1,4]diazonine]-10′-carboxamide] | 1.3 nM | 4810 nM | 2.3 nM | 0.1 nM |
| CC1=NO[C@@]2(CC[C@H](C)N3C[C@H]2n2cc(C(=O)NCc4ccc(F)cc4F)c(=O)c(O)c2C3=O)[C@H]1C [Example 26, (3′S,4S,5S,7′R)—N-(2,4-difluorobenzyl)-12′-hydroxy-3,3′,4-trimethyl-1′,11′-dioxo-1′,4′,5′,11′-tetrahydro-3′H,4H,7′H-spiro[isoxazole-5,6′-[2,7]methanopyrido[1,2-a][1,4]diazonine]-10′-carboxamide] | 0.5 nM | 13000 nM | 9.5 nM | 0.3 nM |
| CO[C@H]1CS[C@@]2(CC[C@H](C)N3C[C@H]2n2cc(C(=O)NCc4c(F)cc(F)cc4F)c(=O)c(O)c2C3=O)O1 (single isomer, unassigned) [170 (peak 3)] | 1.2 nM | 8240 nM | 43.4 nM | 0.3 nM |
| C[C@H]1CC[C@]2(CC(S(C)(=O)=O)=NO2)[C@H]2CN1C(=O)c1c(O)c(=O)c(C(=O)NCc3c(F)cc(F)cc3F)cn12 [Example 154, (3′S,5S,7′R)-12′-hydroxy-3′-methyl-3-(methylsulfonyl)-1′,11′-dioxo-N-(2,4,6-trifluorobenzyl)-1′,4′,5′,11′-tetrahydro-3′H,4H,7′H-spiro[isoxazole-5,6′-[2,7]methanopyrido[1,2-a][1,4]diazonine]-10′-carboxamide] | 4.2 nM | 4140 nM | 22.1 nM | 1.2 nM |
